In paper PMC8480901 (PLoS ONE, 2021):
Where “and” joins values, the source holds several entries; their conditions need not be identical. Equal entries are not always repeated.

Test system: J774.2 mouse macrophages
Test: LPS-induced cytokine and chemokine levels in J774.2 mouse macrophage cell supernatant (ELISA)
Type: cell-based
Conditions: LPS; for CCl2, % reduction / CCl2, Mean / GM-CSF % reduction / GM-CSF Mean / IL-1β % reduction / IL-1β Mean / IL-6 % reduction / IL-6 Mean / TNF-α % reduction / TNF-α Mean / CCl2 / CXCL1 / GM-CSF / IL-1β / IL-6 / TNF-α: J774.2 supernatant; for CCl2 / CXCL1 / GM-CSF / IL-1β / IL-6 / TNF-α / CXCL2 / MMP9: individual replicate; for CXCL2 / MMP9: J774.2 cells

## CC[C@H]1OC(=O)[C@H](C)[C@@H](O[C@H]2C[C@@](C)(OC)[C@@H](O)[C@H](C)O2)[C@H](C)[C@@H](O[C@@H]2O[C@H](C)C[C@H](N(C)C)[C@H]2O)[C@](C)(O)C[C@@H](C)CN(C)[C@H](C)[C@@H](O)[C@]1(C)O [Azithromycin]
1 µM
  CCl2, % reduction: 17%
  CCl2, Mean: 29990 pg/mL
  GM-CSF % reduction: 67%
  GM-CSF Mean: 467 pg/mL
  IL-1β % reduction: 4.32%
  IL-1β Mean: 183 pg/mL
  IL-6 % reduction: 10%
  IL-6 Mean: 69772 pg/mL
  TNF-α % reduction: -11%
  TNF-α Mean: 1515 pg/mL
  CCl2: 27895.3 pg/mL and 32084.6 pg/mL
  CXCL1: 29.3 pg/mL and 31.2 pg/mL
  GM-CSF: 431.5 pg/mL and 502.0 pg/mL
  IL-1β: 188.28 pg/mL and 176.943 pg/mL
  IL-6: 65142 pg/mL and 74401 pg/mL
  TNF-α: 1479.7 pg/mL and 1551.1 pg/mL
3 µM
  CCl2, % reduction: 4%
  CCl2, Mean: 34644 pg/mL
  GM-CSF % reduction: 57%
  GM-CSF Mean: 606 pg/mL
  IL-1β % reduction: -7%
  IL-1β Mean: 204 pg/mL
  IL-6 % reduction: 7%
  IL-6 Mean: 71996 pg/mL
  TNF-α % reduction: -31%
  TNF-α Mean: 1780 pg/mL
  CCl2: 38396.7 pg/mL and 30890.3 pg/mL
  CXCL1: 37.9 pg/mL and 28.5 pg/mL
  GM-CSF: 728.6 pg/mL and 484.1 pg/mL
  IL-1β: 204.824 pg/mL and 203.959 pg/mL
  IL-6: 78966 pg/mL and 65026 pg/mL
  TNF-α: 1995.5 pg/mL and 1564.5 pg/mL
10 µM
  CCl2, % reduction: 9%
  CCl2, Mean: 32971 pg/mL
  GM-CSF % reduction: 52%
  GM-CSF Mean: 674 pg/mL
  IL-1β % reduction: 1.15%
  IL-1β Mean: 189 pg/mL
  IL-6 % reduction: 15%
  IL-6 Mean: 65894 pg/mL
  TNF-α % reduction: -25%
  TNF-α Mean: 1709 pg/mL
  CCl2: 34921.6 pg/mL and 31021.1 pg/mL
  CXCL1: 42.9 pg/mL and 34.6 pg/mL
  GM-CSF: 752.0 pg/mL and 595.8 pg/mL
  IL-1β: 185.693 pg/mL and 191.532 pg/mL
  IL-6: 62169 pg/mL and 69619 pg/mL
  TNF-α: 1793.0 pg/mL and 1624.6 pg/mL
30 µM
  CCl2, % reduction: -14%
  CCl2, Mean: 40819 pg/mL
  GM-CSF % reduction: 66%
  GM-CSF Mean: 483 pg/mL
  IL-1β % reduction: 28%
  IL-1β Mean: 138 pg/mL
  IL-6 % reduction: 43%
  IL-6 Mean: 44169 pg/mL
  TNF-α % reduction: -15%
  TNF-α Mean: 1566 pg/mL
  CCl2: 40980.3 pg/mL and 40657.2 pg/mL
  CXCL1: 68.6 pg/mL and 51.5 pg/mL
  GM-CSF: 510.8 pg/mL and 455.1 pg/mL
  IL-1β: 129.379 pg/mL and 146.376 pg/mL
  IL-6: 40788 pg/mL and 47550 pg/mL
  TNF-α: 1637.1 pg/mL and 1494.0 pg/mL
100 µM
  CCl2, % reduction: 12%
  CCl2, Mean: 31879 pg/mL
  GM-CSF % reduction: 76%
  GM-CSF Mean: 343 pg/mL
  IL-1β % reduction: 36%
  IL-1β Mean: 122 pg/mL
  IL-6 % reduction: 69%
  IL-6 Mean: 24231 pg/mL
  TNF-α % reduction: -21%
  TNF-α Mean: 1656 pg/mL
  CCl2: 33824.3 pg/mL and 29933.1 pg/mL
  CXCL1: 66.2 pg/mL and 50.6 pg/mL
  GM-CSF: 399.7 pg/mL and 287.0 pg/mL
  IL-1β: 120.112 pg/mL and 124.217 pg/mL
  IL-6: 25573 pg/mL and 22888 pg/mL
  TNF-α: 1818.4 pg/mL and 1493.5 pg/mL
Compound 0.03 µM
  CXCL2: 14544.8 pg/mL and 27111.4 pg/mL
  MMP9: 1137.13 pg/mL and 1348.53 pg/mL
Compound 0.1 µM
  CXCL2: 14262.2 pg/mL and 26368.8 pg/mL
  MMP9: 973.296 pg/mL and 1170.61 pg/mL
Compound 0.3 µM
  CXCL2: 19194.7 pg/mL and 27003.7 pg/mL
  MMP9: 981.336 pg/mL and 1072.64 pg/mL
Compound 1 µM
  CXCL2: 28271.6 pg/mL and 28293.6 pg/mL
  MMP9: 1115.62 pg/mL and 1010.37 pg/mL
Compound 3 µM
  CXCL2: 17053.3 pg/mL and 14683.3 pg/mL
  MMP9: 1120.5 pg/mL
Compound 10 µM
  CXCL2: 20008.2 pg/mL and 16019.2 pg/mL
  MMP9: 846.885 pg/mL and 873.775 pg/mL
Compound 30 µM
  CXCL2: 23084.4 pg/mL and 24875.0 pg/mL
  MMP9: 575.954 pg/mL and 501.629 pg/mL
Compound 100 µM
  CXCL2: 19137.4 pg/mL and 23402.0 pg/mL
  MMP9: 340.616 pg/mL and 323.365 pg/mL
